{"source": "PubChem BioAssay (NCI)", "experiment_in_all_cases": "NCI tumour cell line growth inhibition, 48 h", "key": {"MOLT-4 leukemia": {"test_system": "MOLT-4 leukemia"}, "SK-MEL-5 melanoma": {"test_system": "SK-MEL-5 melanoma"}, "SF-539 CNS": {"test_system": "SF-539 CNS"}, "XF 498 CNS": {"test_system": "XF 498 CNS"}, "KM20L2 colon": {"test_system": "KM20L2 colon"}}, "note": "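Following 48 hours of exposure in 96-well plates, responses at five concentrations were used to interpolate endpoints linearly. TGI denotes the concentration required for complete inhibition of growth.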", "data": [{"smiles": "CCN(CC)CCCNC(=O)c1ccccc1Nc1c(Cl)cccc1Cl", "values": [{"measurement": "TGI", "setting": "MOLT-4 leukemia", "result": 27.9, "unit": "µM"}, {"measurement": "TGI", "setting": "SK-MEL-5 melanoma", "result": 10.7, "unit": "µM"}, {"measurement": "TGI", "setting": "SF-539 CNS", "result": 23.7, "unit": "µM"}, {"measurement": "TGI", "setting": "XF 498 CNS", "result": 9.71, "unit": "µM"}, {"measurement": "TGI", "setting": "KM20L2 colon", "result": 5.58, "unit": "µM"}]}]}
